Legend:
[1] = Mouse plasma stability (Examples 16-18); format: in vitro ADME
[2] = Stability in cell culture media (Example 18); format: in vitro ADME
Method: SDC-TRAP Stability in Mouse Plasma and Cell Culture Media
Mouse plasma samples were prepared according to Example 16.

[3] = system: human breast cancer cell line BT-474; assay: Cytotoxicity assay with cancer cell lines, BT-474 (Example 13); format: cell-based; settings: BT-474, 72 h, read-out: Cytotoxicity (IC50, nM) BT-474
[4] = system: human urinary bladder cancer cell line RT-112; assay: Cytotoxicity assay with cancer cell lines, RT-112 (Example 13); format: cell-based; settings: RT-112, 72 h, read-out: Cytotoxicity (IC50, nM) RT-112
[5] = system: human urinary bladder cancer cell line SW780; assay: Cytotoxicity assay with cancer cell lines, SW780 (Example 13); format: cell-based; settings: SW780, 72 h, read-out: Cytotoxicity (IC50, nM) SW-780
[6] = Artificial membrane permeability assay (PAMPA) (Example 36); format: in vitro ADME
in vivo = settings: mouse
[7] = system: MCF-7 breast cancer cells; assay: Mouse xenograft efficacy in an MCF-7 breast cancer model; format: in vivo; settings: 150 or 100 mg/kg/1×wk; FIG. 8
Method: Mouse Xenograft Efficacy Data in an MCF-7 Breast Cancer Model
MCF-7 breast cancer cells were purchased from ATCC. […] Fetal bovine serum was then added to the medium. The final concentration of fetal bovine serum was 10%. Cells were cultured at 37° C. and 5% CO2.
Mice that were not put on treatment were euthanized. Animals were sourced through CRL (Wilmington, Mass.).

[8] = mouse, in vivo
[9] = Tissue distribution of ganetespib in female CD-1 nu/nu mice bearing RERF human NSCLC xenografts; format: in vivo, mouse; settings: 24 hr after 50 mg/kg IV
Text: Tissue distribution of ganetespib in female CD-1 nu/nu mice bearing RERF human NSCLC xenografts
To confirm the distribution of ganetespib in blood, livers, kidneys, brains, hearts, lungs and tumors after IV administration of ganetespib to female CD-1 nu/nu mice bearing RERF human NSCLC xenografts, and to examine metabolic profiles of ganetespib in plasma, red blood cells, and above tissues.
Animals: female CD-1 nu/nu mice bearing RERF human NSCLC xenografts (N=3/group)
Formulation: 10% DMSO, 18% Cremophor RH40, 3.6% dextrose solution (DRD)
Bleeding time points: 5 min, 6, 24 hr
Collected tissues: blood (plasma and red blood cells (RBC)), liver, kidneys, brain, heart, lung, tumor
Protein precipitation: 50 μL of 10 times diluted plasma or RBC+150 μL ACN (10 mM NH4OAc), vortexed and centrifuged at 10000 rpm for 8 min; 150 μL supernatant+150 μL water (10 mM NH4OAc)
Protein precipitation: 100 μL homogenized tissue (1:3 tissue: PBS buffer)+100 μL ACN (10 mM NH4OAc), vortexed and centrifuged at 10000 rpm for 8 min Bioanalysis

HER2 = HER2 degradation in BT-474 cells (Example 3, Western blot / in-cell imaging); format: cell-based, human; settings: Homo sapiens, BT-474; read-out: IC50 of in vitro HER2 assays

concentration at 6 h (in vivo; Plasma Conc.) [nM]	concentration at 24 h (in vivo; Plasma Conc.) [nM]	Kp at 6 h (in vivo; Tumor/Plasma Ratio)	Kp at 24 h (in vivo; Tumor/Plasma Ratio)	Concentration of ganetespib in plasma [9]	IC50 (HER2) [nM]	SMILES	Mouse (10 μM) % Remaining 1 h (37° C.)* [1] [%]	Media (5 μM) % Remaining 1 h (37° C.)* ([2]; 1 h) [%]	Media (5 μM) % Remaining 19 h (37° C.) ([2]; 19 h) [%]	IC50 [3] [nM]	IC50 [4] [nM]	IC50 [5] [nM]	Mass Retention ([6]; incubation 5 h, the 55th table) [%]	Papp at 5 h ([6]; incubation 5 h, the 55th table) [×10⁻⁶ cm/s]	Mass Retention ([6]; same protocol, the 56th table) [%]	Papp at 5 h ([6]; same protocol, the 56th table) [×10⁻⁶ cm/s]	Kp at 1 h (in vivo; Tumor/Plasma Ratio)	Kp at […] (in vivo; Tumor/Plasma Ratio)	tumor growth suppression (tumor volume) [7]	tumor targeting (tissue distribution, in words) [8]
–	–	–	–	–	–	CCc1c2c(cc3ccc(O)cc13)-c1cc3c(c(=O)n1C2)COC(=O)[C@]3(O)CC [SN-38]	64	82	52	> 10000	< 10	38	38.2	0.643	46.6	1.87	0.07	0.01	–	–
1690	6.75	0.958	30.1	–	–	CCc1c2c(nc3ccc(OC(=O)N4CCC(CCn5ccc6cc(-n7c(O)nnc7-c7cc(C(C)C)c(O)cc7O)ccc65)CC4)cc13)-c1cc3c(c(=O)n1C2)COC(=O)[C@]3(O)CC [SDC-TRAP-0063, 4,11-diethyl-4-hydroxy-3,14-dioxo-3,4,12,14-tetrahydro-1H-pyrano[3′,4′:6,7]indolizino[1,2-b]quinolin-9-yl 4-(2-(5-(3-(2,4-dihydroxy-5-isopropylphenyl)-5-hydroxy-4H-1,2,4-triazol-4-yl)-1H-indol-1-yl)ethyl)piperidine-1-carboxylate]	–	–	–	–	–	–	–	–	–	–	–	0.0122	greater tumor growth suppression than effector moiety irinotecan alone	selectively targets and accumulates in tumor cells
–	–	–	–	<LLOQ	~30	CC(C)c1cc(-c2n[nH]c(=O)n2-c2ccc3c(ccn3C)c2)c(O)cc1O [ganetespib, reference compound]	–	–	–	–	–	–	–	–	–	–	–	–	–	–

Source: US9956293B2, “Targeted therapeutics” (Madrigal Pharmaceuticals, Inc., priority 2014, dated 2018)
